According to PubChem BioAssay (NCI):
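Each compound was tested at five concentrations against cells in 96-well plates for 48 hours. The concentration for 50% growth inhibition is given as GI50. The concentration for full growth arrest is given as TGI.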

Legend:
Test in all cases: growth of human tumour cells (NCI), 48 h
HOP-92 NSCLC = tested on: HOP-92 NSCLC
UO-31 renal = tested on: UO-31 renal
OVCAR-3 ovarian = tested on: OVCAR-3 ovarian
SNB-19 CNS = tested on: SNB-19 CNS
M14 melanoma = tested on: M14 melanoma
SK-MEL-5 melanoma = tested on: SK-MEL-5 melanoma
RPMI-8226 leukemia = tested on: RPMI-8226 leukemia
NCI-H226 lung = tested on: NCI-H226 lung
HS 578T breast = tested on: HS 578T breast
PC-3 prostate = tested on: PC-3 prostate

Row | Structure (SMILES) | TGI (HOP-92 NSCLC) | TGI (UO-31 renal) | TGI (OVCAR-3 ovarian) | TGI (SNB-19 CNS) | TGI (M14 melanoma) | TGI (SK-MEL-5 melanoma) | TGI (RPMI-8226 leukemia) | TGI (NCI-H226 lung) | GI50 (HS 578T breast) | TGI (HS 578T breast) | GI50 (UO-31 renal) | GI50 (OVCAR-3 ovarian) | GI50 (SNB-19 CNS) | GI50 (M14 melanoma) | GI50 (SK-MEL-5 melanoma) | GI50 (PC-3 prostate) | TGI (PC-3 prostate) | GI50 (RPMI-8226 leukemia) | GI50 (NCI-H226 lung)
1 | O=C(O)CCSC(=O)Nc1ccccc1Cl | > 100 µM | > 100 µM | > 100 µM | > 100 µM | > 100 µM | > 100 µM | > 100 µM | > 100 µM |  |  |  |  |  |  |  |  |  |  | 
2 | CCOC(=O)C1SC(=Nc2ccc(Cl)cc2C)N=C1C (stereo unspecified) | 30 µM | 39.9 µM | 48.2 µM | > 100 µM | 35.3 µM | 29.9 µM |  | 63.5 µM |  |  |  |  |  |  |  |  |  |  | 
3 | CC1=NN(C(=O)c2ccc(Cl)cc2)C(=O)/C1=C/c1ccco1 | > 100 µM | > 100 µM | > 100 µM | > 100 µM | > 100 µM | > 100 µM | > 100 µM |  |  |  |  |  |  |  |  |  |  |  | 
4 | Cn1nc(-c2ccccc2)c(C(=O)/C=C/c2ccc(F)cc2)c(N2CCOCC2)c1=O | 36.4 µM | 25.6 µM |  | 31.8 µM | 48.8 µM | 29.3 µM | 23.2 µM |  |  |  |  |  |  |  |  |  |  |  | 
5 | CCOC(=O)c1c2cccccc2n2c(=O)cc(C)nc12 |  | > 100 µM | > 100 µM | > 100 µM | > 100 µM |  | > 100 µM | > 100 µM |  |  |  |  |  |  |  |  |  |  | 
6 | CO[C@@H]1[C@H]2[C@@H](C)c3ccoc3C[C@@H]2[C@@]2(C)CC[C@H](OC(=O)c3ccccc3)[C@](C)(C(=O)O)[C@]2(O)[C@@H]1OC(=O)c1ccccc1 |  | > 50 µM | 15.9 µM | > 50 µM | 24.4 µM | 13.7 µM | > 50 µM | 26.7 µM | 24.8 µM | > 50 µM | > 50 µM | 5.17 µM | 16.1 µM | 8.53 µM | 7.21 µM | 16.4 µM | > 50 µM | 15.4 µM | 9.77 µM
7 | O=C(c1ccccc1)c1c(CC(O)c2ccccc2)n(C(=O)c2ccccc2)c2ccccc12 (stereo unspecified) | 98.9 µM | 60.6 µM | > 100 µM | > 100 µM | > 100 µM | > 100 µM | > 100 µM | > 100 µM |  |  |  |  |  |  |  |  |  |  | 
8 | COC(=O)C(=O)C(C(=O)C=C(C)C)C(=O)C(=O)Nc1nc2ccc([N+](=O)[O-])cc2s1 (stereo unspecified) | 74.2 µM | > 100 µM | > 100 µM | > 100 µM | > 100 µM | > 100 µM | > 100 µM | > 100 µM |  |  |  |  |  |  |  |  |  |  | 
9 | Cc1ccc(NC(=O)CC/C(CC(=O)C(C)(C)C)=N\Nc2ccc([N+](=O)[O-])cc2[N+](=O)[O-])cc1C | > 100 µM | > 100 µM |  | > 100 µM | 20.4 µM |  |  | > 100 µM |  |  |  |  |  |  |  |  |  |  | 
10 | CC(=N)N(C)O | > 100 µM | > 100 µM | > 100 µM |  | > 100 µM | > 100 µM | > 100 µM | > 100 µM |  |  |  |  |  |  |  |  |  |  | 
11 | COc1ccc(NC(=O)CCc2cc(C(C)(C)C)n[nH]2)cc1 | > 100 µM | > 100 µM | > 100 µM | > 100 µM | > 100 µM | > 100 µM | > 100 µM | > 100 µM |  |  |  |  |  |  |  |  |  |  | 
12 | C/C(CCn1[nH]c(=O)ccc1=O)=N\Nc1ccc([N+](=O)[O-])cc1[N+](=O)[O-] | > 100 µM | > 100 µM | > 100 µM | > 100 µM | > 100 µM | > 100 µM | > 100 µM | > 100 µM |  |  |  |  |  |  |  |  |  |  | 
